Measured values: patent US9518018B2, “3-alkoxy, thioalkyl and amino-4-amino-6-(substituted)picolinates and their use as herbicides” (Dow AgroSciences LLC, priority 2011, dated 2016)

What was measured:
Test in all cases: Post-Emergent Test I herbicidal activity
Assay type in all cases: in vivo
[1] = test system: ABUTH: velvetleaf (Abutilon theophrasti); conditions: Abutilon theophrasti, post-emergence, 336 h, read-out: Visual Growth Reduction (%)-14 Days after Application ABUTH; for pest or weed control at 140 g/ha: Table 3, 140 g ai/ha; for pest or weed control at 280 g/ha: Table 3, 280 g ai/ha; for pest or weed control at 70 g/ha: Table 3, 70 g ai/ha
Procedure: (§1) Seeds or nutlets of the desired test plant species were planted in Sun Gro Metro-Mix® 360 planting mixture, which typically has a pH of 6.0 to 6.8 and an organic matter content of about 30 percent, in plastic pots with a surface area of 64 square centimeters. When required to ensure good germination and healthy plants, a fungicide treatment and/or other chemical or physical treatment was applied. The plants were grown for 7-21 d in a greenhouse with an approximate 15 h photoperiod which was maintained at about 23-29° C. during the day and 22-28° C. during the night. Nutrients and water were added on a regular basis and supplemental lighting was provided with overhead metal halide 1000-Watt lamps as necessary. The plants were employed for testing when they reached the first or second true leaf stage.
(§2) A weighed amount, determined by the highest rate to be tested, of each test compound was placed in a 25 mL glass vial and was dissolved in 4 mL of a 97:3 v/v mixture of acetone and DMSO to obtain concentrated stock solutions. […] The concentrated stock solutions obtained were diluted with 20 mL of an aqueous mixture containing acetone, water, isopropyl alcohol, DMSO, Atplus 411F crop oil concentrate, and Triton® X-155 surfactant in a 48.5:39:10:1.5:1.0:0.02 v/v ratio to obtain spray solutions containing the highest application rates. Additional application rates were obtained by serial dilution of 12 mL of the high rate solution into a solution containing 2 mL of 97:3 v/v mixture of acetone and DMSO and 10 mL of an aqueous mixture containing acetone, water, isopropyl alcohol, DMSO, Atplus 411F crop oil concentrate, and Triton X-155 surfactant in a 48.5:39:10:1.5:1.0:0.02 v/v ratio to obtain ½×, ¼×, ⅛× and 1/16× rates of the high rate. Compound requirements are based upon a 12 mL application volume at a rate of 187 liters per hectare (L/ha). Formulated compounds were applied to the plant material with an overhead Mandel track sprayer equipped with 8002E nozzles calibrated to deliver 187 L/ha over an application area of 0.503 square meters at a spray height of 18 inches (43 cm) above the average plant canopy height. Control plants were sprayed in the same manner with the solvent blank.
(§3) The treated plants and control plants were placed in a greenhouse as described above and watered by subirrigation to prevent wash-off of the test compounds. After 14 d, the condition of the test plants as compared with that of the untreated plants was determined visually and scored on a scale of 0 to 100 percent where 0 corresponds to no injury and 100 corresponds to complete kill.
(§4) By applying the well-accepted probit analysis as described by J. Berkson in Journal of the […], 48, 565 (1953) and by D. Finney in “Probit Analysis” Cambridge University Press (1952), the above data can be used to calculate GR20, GR50 and GR80 values, which are defined as growth reduction factors that correspond to the effective dose of herbicide required to kill or control 20 percent, 50 percent or 80 percent, respectively, of a target plant.

[2] = test system: CHEAL: lambsquarters (Chenopodium album); conditions: Chenopodium album, post-emergence, 336 h, read-out: Visual Growth Reduction (%)-14 Days after Application CHEAL; for pest or weed control at 140 g/ha: Table 3, 140 g ai/ha; for pest or weed control at 280 g/ha: Table 3, 280 g ai/ha; for pest or weed control at 70 g/ha: Table 3, 70 g ai/ha
Procedure: as §1, §2, §3, §4

[3] = test system: CYPES: yellow nutsedge (Cyperus esculentus); conditions: post-emergence, 336 h, read-out: Visual Growth Reduction (%)-14 Days after Application CYPES; for pest or weed control at 140 g/ha: Table 3, 140 g ai/ha; for pest or weed control at 280 g/ha: Table 3, 280 g ai/ha; for pest or weed control at 70 g/ha: Table 3, 70 g ai/ha
Procedure: as §1, §2, §3, §4

[4] = test system: ECHCG: barnyardgrass (Echinochloa crus-galli); conditions: post-emergence, 336 h, read-out: Visual Growth Reduction (%)-14 Days after Application ECHCG; for pest or weed control at 140 g/ha: Table 3, 140 g ai/ha; for pest or weed control at 280 g/ha: Table 3, 280 g ai/ha; for pest or weed control at 70 g/ha: Table 3, 70 g ai/ha
Procedure: as §1, §2, §3, §4

[5] = test system: EPHHL: wild poinsettia (Euphorbia heterophylla); conditions: post-emergence, 336 h, read-out: Visual Growth Reduction (%)-14 Days after Application EPHHL; for pest or weed control at 140 g/ha: Table 3, 140 g ai/ha; for pest or weed control at 280 g/ha: Table 3, 280 g ai/ha; for pest or weed control at 70 g/ha: Table 3, 70 g ai/ha
Procedure: as §1, §2, §3, §4

[6] = test system: ORYSA: rice (Oryza sativa); conditions: post-emergence, 336 h, read-out: Visual Growth Reduction (%)-14 Days after Application ORYSA; for pest or weed control at 140 g/ha: Table 3, 140 g ai/ha; for pest or weed control at 280 g/ha: Table 3, 280 g ai/ha; for pest or weed control at 70 g/ha: Table 3, 70 g ai/ha
Procedure: as §1, §2, §3, §4

[7] = test system: ZEAMX: corn (Zea mays); conditions: Zea mays, post-emergence, 336 h, read-out: Visual Growth Reduction (%)-14 Days after Application ZEAMX; for pest or weed control at 140 g/ha: Table 3, 140 g ai/ha; for pest or weed control at 280 g/ha: Table 3, 280 g ai/ha; for pest or weed control at 70 g/ha: Table 3, 70 g ai/ha
Procedure: as §1, §2, §3, §4

`COC(=O)c1nc(-c2ccc(Cl)c(OC)c2F)cc(NC(C)=O)c1OC` [Compound 3, methyl 4-acetamido-6-(4-chloro-2-fluoro-3-methoxyphenyl)-3-methoxypicolinate] was tested, and the pest or weed control at 140 g/ha [1] was 100%, the pest or weed control at 140 g/ha [2] was 100% and the pest or weed control at 140 g/ha [3] was 0%. The pest or weed control at 140 g/ha [4] was 0%, the pest or weed control at 140 g/ha [5] was 100% and the pest or weed control at 140 g/ha [6] was 0%. It also gave a pest or weed control at 140 g/ha [7] of 10%.

In the case of `COC(=O)c1nc(-c2ccc(Cl)cc2F)cc(NC(C)=O)c1OC` [Compound 4, Methyl 4-acetamido-6-(4-chloro-2-fluorophenyl)-3-methoxypicolinate], the pest or weed control at 140 g/ha [1] is reported as 80%, the pest or weed control at 140 g/ha [2] is reported as 100% and the pest or weed control at 140 g/ha [3] is reported as 0%. For the same compound, the pest or weed control at 140 g/ha [4] was 0%, the pest or weed control at 140 g/ha [5] was 100% and the pest or weed control at 140 g/ha [6] was 0%. It also gave a pest or weed control at 140 g/ha [7] of 0%.

Compound `COC(=O)c1nc(-c2ccc(Cl)cc2)cc(N)c1OC` [Compound 7, methyl 4-amino-6-(4-chlorophenyl)-3-methoxypicolinate] has a pest or weed control at 140 g/ha [1] of 90%, a pest or weed control at 140 g/ha [2] of 100% and a pest or weed control at 140 g/ha [3] of 0%. The pest or weed control at 140 g/ha [4] was 0%, the pest or weed control at 140 g/ha [5] was 95% and the pest or weed control at 140 g/ha [6] was 0%. It also gave a pest or weed control at 140 g/ha [7] of 0%.

In the case of `CCOC(=O)c1nc(-c2ccc(Cl)c(OC)c2F)cc(N)c1OC(F)F` [Compound 8, ethyl 4-amino-6-(4-chloro-2-fluoro-3-methoxyphenyl)-3-(difluoromethoxy)picolinate], the pest or weed control at 280 g/ha [1] is reported as 25%, the pest or weed control at 280 g/ha [2] is reported as 30% and the pest or weed control at 280 g/ha [3] is reported as 0%. The pest or weed control at 280 g/ha [4] was 0%, the pest or weed control at 280 g/ha [5] was 90% and the pest or weed control at 280 g/ha [6] was 0%. For the same compound, the pest or weed control at 280 g/ha [7] was 0%.

`COC(=O)c1nc(Cl)c(F)c(N)c1OC` [Compound 10, methyl 4-amino-6-chloro-5-fluoro-3-methoxypicolinate] was tested, and the pest or weed control at 280 g/ha [1] was 100%, the pest or weed control at 280 g/ha [2] was 100% and the pest or weed control at 280 g/ha [3] was 0%. The pest or weed control at 280 g/ha [4] was 0%, the pest or weed control at 280 g/ha [5] was 100% and the pest or weed control at 280 g/ha [6] was 0%. It also gave a pest or weed control at 280 g/ha [7] of 25%.

With `COc1c(C(=O)O)nc(-c2ccc(C(F)(F)F)c(F)c2)c(F)c1N` [Compound 11, 4-amino-5-fluoro-6-(3-fluoro-4-(trifluoromethyl)phenyl)-3-methoxypicolinic acid] the pest or weed control at 140 g/ha [1] was 100%, the pest or weed control at 140 g/ha [2] was 100% and the pest or weed control at 140 g/ha [3] was 50%. It also gave a pest or weed control at 140 g/ha [4] of 100%, a pest or weed control at 140 g/ha [5] of 100% and a pest or weed control at 140 g/ha [6] of 12%. The pest or weed control at 140 g/ha [7] was 80%.

Compound `C=Cc1nc(C(=O)OC)c(OC)c(N)c1F` [Compound 12, methyl 4-amino-5-fluoro-3-methoxy-6-vinylpicolinate] has a pest or weed control at 280 g/ha [1] of 0%, a pest or weed control at 280 g/ha [2] of 70% and a pest or weed control at 280 g/ha [3] of 0%. The pest or weed control at 280 g/ha [4] was 0%, the pest or weed control at 280 g/ha [5] was 0% and the pest or weed control at 280 g/ha [6] was 0%. The pest or weed control at 280 g/ha [7] was 0%.

Work on `COC(=O)c1nc(-c2ccc(Br)c(F)c2F)c(F)c(N)c1OC` [Compound 19, methyl 4-amino-6-(4-bromo-2,3-difluorophenyl)-5-fluoro-3-methoxypicolinate] yielded a pest or weed control at 70 g/ha [1] of 85%, a pest or weed control at 70 g/ha [2] of 100% and a pest or weed control at 70 g/ha [3] of 90%. The pest or weed control at 70 g/ha [4] was 75%, the pest or weed control at 70 g/ha [5] was 100% and the pest or weed control at 70 g/ha [6] was 0%. The pest or weed control at 70 g/ha [7] was 70%.

In the case of `COC(=O)c1nc(-c2ccc(Br)c(F)c2)c(F)c(N)c1OC` [Compound 21], the pest or weed control at 70 g/ha [1] is reported as 85%, the pest or weed control at 70 g/ha [2] is reported as 100% and the pest or weed control at 70 g/ha [3] is reported as 70%. For the same compound, the pest or weed control at 70 g/ha [4] was 50%, the pest or weed control at 70 g/ha [5] was 100% and the pest or weed control at 70 g/ha [6] was 0%. It also gave a pest or weed control at 70 g/ha [7] of 50%.

`COC(=O)c1nc(-c2ccc(Br)cc2F)c(F)c(N)c1OC` [Compound 22] showed a pest or weed control at 140 g/ha [1] of 60%, a pest or weed control at 140 g/ha [2] of 100% and a pest or weed control at 140 g/ha [3] of 50%. The pest or weed control at 140 g/ha [4] was 90%, the pest or weed control at 140 g/ha [5] was 100% and the pest or weed control at 140 g/ha [6] was 0%. For the same compound, the pest or weed control at 140 g/ha [7] was 70%.

With `COC(=O)c1nc(-c2ccc(I)cc2)c(F)c(N)c1OC` [Compound 23, methyl 4-amino-5-fluoro-6-(4-iodophenyl)-3-methoxypicolinate] the pest or weed control at 140 g/ha [1] was 70%, the pest or weed control at 140 g/ha [2] was 100% and the pest or weed control at 140 g/ha [3] was 100%. It also gave a pest or weed control at 140 g/ha [4] of 80%, a pest or weed control at 140 g/ha [5] of 100% and a pest or weed control at 140 g/ha [6] of 0%. The pest or weed control at 140 g/ha [7] was 70%.

With `COC(=O)c1nc(-c2ccc(I)c(F)c2F)c(F)c(N)c1OC` [Compound 24] the pest or weed control at 140 g/ha [1] was 60%, the pest or weed control at 140 g/ha [2] was 65% and the pest or weed control at 140 g/ha [3] was 100%. It also gave a pest or weed control at 140 g/ha [4] of 50%, a pest or weed control at 140 g/ha [5] of 100% and a pest or weed control at 140 g/ha [6] of 0%. It also gave a pest or weed control at 140 g/ha [7] of 75%.

In the case of `COC(=O)c1nc(-c2ccc(I)cc2F)c(F)c(N)c1OC` [Compound 26], the pest or weed control at 140 g/ha [1] is reported as 10%, the pest or weed control at 140 g/ha [2] is reported as 90% and the pest or weed control at 140 g/ha [3] is reported as 50%. The pest or weed control at 140 g/ha [4] was 55%, the pest or weed control at 140 g/ha [5] was 100% and the pest or weed control at 140 g/ha [6] was 0%. It also gave a pest or weed control at 140 g/ha [7] of 75%.

`COC(=O)c1nc(-c2ccc(I)c(F)c2)c(F)c(N)c1OC` [Compound 27] gave a pest or weed control at 140 g/ha [1] of 60%, a pest or weed control at 140 g/ha [2] of 90% and a pest or weed control at 140 g/ha [3] of 100%. The pest or weed control at 140 g/ha [4] was 60%, the pest or weed control at 140 g/ha [5] was 100% and the pest or weed control at 140 g/ha [6] was 0%. It also gave a pest or weed control at 140 g/ha [7] of 70%.
